Reference: patent publication US20220213052A1, “INHIBITORS OF RNA-BINDING PROTEINS, COMPOSITIONS THEREOF, AND THERAPEUTIC USES THEROF” (The University of North Carolina at Chapel Hill, priority 2019, published 2022)
Counter-ions that a name gives are not always drawn. Like-named read-outs stand apart in the source and are kept apart here.

Legend:
[1] = target: T1, full-length human HuR protein (Homo sapiens, UniProt Q15717); assay: FP assay of HuR-Msi1 ARE binding inhibition; details: HuR-Msi1 ARE interaction; read-out: HuR Ki via FP assay
T1 construct: full-length human HuR protein was produced by the KU COBRE-PSF Protein Purification Group; made in house
Excerpt: A fluorescence polarization (FP)-based binding assay was utilized to assess the inhibition of HuR protein interaction with the ARE site of Msi1 mRNA (“HuR-Msi1^ARE”) by compounds of interest. Briefly, full-length human HuR protein was produced by the KU COBRE-PSF Protein Purification Group and Bcl2, Msi1 and XIAP mRNA sequences (16 nt) were designed based on literature precedent^23,24,31,32. Fluorescein labeled RNAs were purchased from Dharmacon with the following sequences: Msi1 RNA: 5′-[…]-3′-fluorescein; Bcl-2 RNA: 5′-[…]-3′-fluorescein; XIAP RNA: 5′-[…] UGUC-3′-fluorescein, and a 16-nt degenerative RNA with 3′-fluorescein label was used as a negative control.
(§1) With the FP assay of HuR-Msi1ARE binding, the inhibition of the HuR-Msi1ARE interaction by various compounds of the present technology was assessed. Similar FP assays for Musashi 2 (Msi2) and for RNA-binding protein Lin-28 homolog B (LIN28B) were also performed on various compounds of the present technology. The results of such assays for HuR are provided in Table 1 alongside the compound structures as well as ID numbers for ease of reference; the results of such assays for Msi1, Msi2, and LIN28B are provided in Table 2.

[2] = test system: triple-negative breast cancer cell line MDA-MB-231; assay: Cytotoxicity assay (WST-8), MDA-MB-231; format: cell-based; details: Homo sapiens, 96 h incubation
Description: The cytotoxicity of various compounds of the present technology in several cancer cell lines (pancreatic cancer cell line MIAPaCa-2, triple-negative breast cancer cell line MDA-MB-231, and colon cancer cell lines HCT116, HCT116 β/W, and RKO) was assessed by a cytotoxicity assay. Cells were seeded in 96-well culture plates (3,000-5,000 cells/well) and treated with titrated compounds in triplicate. After 96 h incubation, cell growth medium was removed and proliferation reagent WST-8 (Sigma) was added to each well and incubated at 37° C. for 1-3 h. Absorbance was then measured with a plate reader at 450 nm with correction at 650 nm. The results were expressed as the percentage of absorbance of treated wells versus that of vehicle control. IC50, the drug concentration causing 50% growth inhibition, was calculated via sigmoid curve fitting using GraphPad Prism 5.0. The results for those compounds tested against MIAPaCa-2 and MDA-MB-231 are provided in Table 1; the results for those compounds tested against colon cancer cell lines HCT116, HCT116 β/W, and RKO are provided in Table 3.

Msi1 = Msi1 (Homo sapiens, UniProt O43347); assay: Msi1 FP assay; format: binding
Description: as §1

Musashi 2 (Msi2) = Musashi 2 (Msi2) (Homo sapiens, UniProt Q96DH6); assay: Msi2 FP assay; format: binding
Description: as §1

[3] = target: T2, RNA-binding protein Lin-28 homolog B (LIN28B) (Homo sapiens, UniProt Q6ZN17); assay: LIN28B FP assay
T2 sequence (Q6ZN17 1-250): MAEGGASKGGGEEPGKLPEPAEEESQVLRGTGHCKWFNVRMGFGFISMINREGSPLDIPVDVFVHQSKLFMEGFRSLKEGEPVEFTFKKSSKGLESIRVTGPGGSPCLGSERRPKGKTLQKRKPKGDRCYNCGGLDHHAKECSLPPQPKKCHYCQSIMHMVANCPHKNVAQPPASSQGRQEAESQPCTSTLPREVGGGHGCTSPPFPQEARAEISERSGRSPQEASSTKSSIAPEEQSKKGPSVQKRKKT
Description: as §1

[4] = cell without (RRM1) mark, read-out: Msi2 (Ki)
[5] = cell marked (RRM1), read-out: Msi2 (Ki) (RRM1)

T1 sequence (Q15717 whole entry): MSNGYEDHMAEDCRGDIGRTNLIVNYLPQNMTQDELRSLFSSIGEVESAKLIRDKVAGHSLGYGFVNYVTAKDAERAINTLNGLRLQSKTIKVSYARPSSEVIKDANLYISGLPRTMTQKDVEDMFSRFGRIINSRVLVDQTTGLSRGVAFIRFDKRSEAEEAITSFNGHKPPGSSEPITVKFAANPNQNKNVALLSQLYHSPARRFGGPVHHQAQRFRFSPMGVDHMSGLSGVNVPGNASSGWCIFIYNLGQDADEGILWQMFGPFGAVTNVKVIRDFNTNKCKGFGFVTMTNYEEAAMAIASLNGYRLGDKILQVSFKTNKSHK
Sequence of Msi1 (O43347 whole entry, species assumed): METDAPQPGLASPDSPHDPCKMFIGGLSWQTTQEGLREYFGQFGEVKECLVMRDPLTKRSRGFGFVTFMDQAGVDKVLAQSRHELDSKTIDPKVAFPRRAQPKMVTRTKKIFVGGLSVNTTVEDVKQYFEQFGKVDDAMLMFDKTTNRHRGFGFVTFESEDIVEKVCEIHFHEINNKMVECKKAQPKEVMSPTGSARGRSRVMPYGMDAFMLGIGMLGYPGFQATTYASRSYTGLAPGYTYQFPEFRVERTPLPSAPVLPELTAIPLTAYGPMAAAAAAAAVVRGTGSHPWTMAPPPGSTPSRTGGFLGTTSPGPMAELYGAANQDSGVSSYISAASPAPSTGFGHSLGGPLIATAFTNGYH
Sequence of Musashi 2 (Msi2) (Q96DH6 whole entry, species assumed): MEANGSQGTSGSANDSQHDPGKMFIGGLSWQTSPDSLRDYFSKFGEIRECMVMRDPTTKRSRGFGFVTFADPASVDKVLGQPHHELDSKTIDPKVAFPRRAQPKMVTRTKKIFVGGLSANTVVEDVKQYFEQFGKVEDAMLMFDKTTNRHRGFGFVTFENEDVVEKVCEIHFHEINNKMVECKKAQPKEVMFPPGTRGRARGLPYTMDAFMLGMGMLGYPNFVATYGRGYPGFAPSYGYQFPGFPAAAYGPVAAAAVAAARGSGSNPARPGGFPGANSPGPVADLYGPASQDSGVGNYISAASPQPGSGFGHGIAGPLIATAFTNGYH

| Structure (SMILES) | Ki [1] | Ki (Msi1) | Ki (Musashi 2 (Msi2); [4]) | Ki [3] | Ki (Musashi 2 (Msi2); [5]) | IC50 [2] |
| --- | --- | --- | --- | --- | --- | --- |
| O=C(O)CCc1cc2cc(NC(=O)c3ccc(F)cc3)ccc2s1 [KH-28A, 3-(5-(4-Fluorobenzamido)benzo[b]thiophen-2-yl)propanoic acid] | > 20 µM | > 20 µM | > 20 µM | > 20 µM | – | – |
| CC(C)(C)c1ccc(C(=O)Nc2ccc3sc(CCC(=O)NN)cc3c2)cc1 [KH-22E, 4-(tert-butyl)-N-(2-(3-hydrazinyl-3-oxopropyl)benzo[b]thiophen-5-yl)benzamide] | 1.06 µM | > 20 µM | > 20 µM | > 20 µM | – | 8.56 µM |
| CC(C)(C)c1ccc(C(=O)Nc2ccc3sc(/C=C/C(=O)NN)cc3c2)cc1 [KH-19E, (E)-4-(tert-butyl)-N-(2-(3-hydrazinyl-3-oxoprop-1-en-1-yl)benzo[b]thiophen-5-yl)benzamide] | 0.19 µM | > 20 µM | > 20 µM | > 20 µM | – | 28.4 µM |
| Cc1ccc(C(=O)Nc2ccc3sc(CCC(=O)NO)cc3c2)cc1 [KH-27, N-(2-(3-(hydroxyamino)-3-oxopropyl)benzo[b]thiophen-5-yl)-4-methylbenzamide] | 3.72 µM | > 20 µM | > 20 µM | > 20 µM | – | 9.34 µM |
| CC(C)(C)c1ccc(C(=O)Nc2ccc3sc(CCC(N)=O)cc3c2)cc1 [KH-22C, N-(2-(3-amino-3-oxopropyl)benzo[b]thiophen-5-yl)-4-(tert-butyl)benzamide] | 7 µM | > 20 µM | > 20 µM | > 20 µM | – | 2.87 µM |
| NNC(=O)CCc1cc2cc(NC(=O)c3ccc(C(F)(F)F)cc3)ccc2s1 [KH-29E] | 3.32 µM | > 20 µM | > 20 µM | > 20 µM | – | 71.2 µM |
| CC(C)(C)c1ccc(C(=O)Nc2ccc3sc(/C=C/C(N)=O)cc3c2)cc1 [KH-19C, (E)-N-(2-(3-amino-3-oxoprop-1-en-1-yl)benzo[b]thiophen-5-yl)-4-(tert-butyl)benzamide] | 0.6 µM | > 20 µM | 4.83 µM | > 20 µM | – | 8.68 µM |
| CC(C)(C)c1ccc(C(=O)Nc2ccc3sc(CCC(=O)NO)cc3c2)cc1 [KH-22, 4-(tert-Butyl)-N-(2-(3-(hydroxyamino)-3-oxopropyl)benzo[b]thiophen-5-yl)benzamide] | 0.83 µM | > 20 µM | > 20 µM | > 20 µM | – | 3.48 µM |
| O=C(CCc1cc2cc(NC(=O)c3ccc(C(F)(F)F)cc3)ccc2s1)NO [KH-29, N-(2-(3-(hydroxyamino)-3-oxopropyl)benzo[b]thiophen-5-yl)-4-(trifluoromethyl)benzamide] | 2.51 µM | > 20 µM | > 20 µM | > 20 µM | – | 12.4 µM |
| CC(C)(C)c1cccc(C(=O)Nc2ccc3sc(CCC(=O)O)cc3c2)c1 [KH-30A, 3-(5-(3-(tert-butyl)benzamido)benzo[b]thiophen-2-yl)propanoic acid] | > 20 µM | > 20 µM | > 20 µM | > 20 µM | – | > 100 µM |
| O=C(O)/C=C/c1cc2cc(NC(=O)c3ccc(F)cc3)ccc2s1 [KH-23A, (E)-3-(5-(4-Fluorobenzamido)benzo[b]thiophen-2-yl)acrylic acid] | > 20 µM | > 20 µM | > 20 µM | > 20 µM | – | – |

Further lines, with some results ahead:

| Ki [1] | Ki (Msi1) | Ki (Musashi 2 (Msi2); [4]) | Ki [3] | Ki (Musashi 2 (Msi2); [5]) | Structure (SMILES) | IC50 [2] |
| --- | --- | --- | --- | --- | --- | --- |
| > 20 µM | > 20 µM | > 20 µM | > 20 µM | – | CN(C)c1ccc(C(=O)Nc2ccc3sc(CCC(=O)O)cc3c2)cc1 [KH-38A, 3-(5-(4-(Dimethylamino)benzamido)benzo[b]thiophen-2-yl)propanoic acid] | > 100 µM |
| 0.47 µM | 3.89 µM | – | 3 µM | 1.3 µM | CC(C)(C)c1cccc(C(=O)Nc2ccc3sc(/C=C/C(=O)NO)cc3c2)c1 [KH-31, (E)-3-(tert-Butyl)-N-(2-(3-(hydroxyamino)-3-oxoprop-1-en-1-yl)benzo[b]thiophen-5-yl)benzamide] | 9.74 µM |
| 1.2 µM | 2.63 µM | – | > 20 µM | 1.03 µM | O=C(O)/C=C/c1cc2cc(NC(=O)c3ccc(S(F)(F)(F)(F)F)cc3)ccc2s1 [KH-33A, (E)-3-(5-(4-(pentafluoro-λ^6-sulfanyl)benzamido)benzo[b]thiophen-2-yl)acrylic acid] | 50.1 µM |
| 2.27 µM | 4.6 µM | – | > 20 µM | 1.36 µM | CC(C)(C)c1cccc(C(=O)Nc2ccc3sc(/C=C/C(=O)O)cc3c2)c1 [KH-31A, (E)-3-(5-(3-(tert-Butyl)benzamido)benzo[b]thiophen-2-yl)acrylic acid] | 95.3 µM |
| 1.53 µM | > 20 µM | > 20 µM | > 20 µM | – | O=C(CCc1cc2cc(NC(=O)c3ccc(S(F)(F)(F)(F)F)cc3)ccc2s1)NO [KH-34, N-(2-(3-(Hydroxyamino)-3-oxopropyl)benzo[b]thiophen-5-yl)-4-(pentafluoro-X^6-sulfanyl)benzamide] | 3.97 µM |
| > 20 µM | > 20 µM | > 20 µM | > 20 µM | – | CC(C)c1ccc(C(=O)Nc2ccc3sc(CCC(=O)O)cc3c2)cc1 [KH-37A, 3-(5-(4-Isopropylbenzamido)benzo[b]thiophen-2-yl)propanoic acid] | > 100 µM |
| 3.56 µM | > 20 µM | > 20 µM | > 20 µM | – | CN(C)c1ccc(C(=O)Nc2ccc3sc(CCC(=O)NN)cc3c2)cc1 [KH-38E] | 57.6 µM |
| 5.8 µM | > 20 µM | > 20 µM | > 20 µM | – | O=C(O)CCc1cc2cc(NC(=O)c3ccc(S(F)(F)(F)(F)F)cc3)ccc2s1 [KH-34A, 3-(5-(4-(pentafluoro-λ^6-sulfanyl)benzamido)benzo[b]thiophen-2-yl)propanoic acid] | 48 µM |
| 1.29 µM | – | > 20 µM | 5.84 µM | – | O=C(/C=C/c1cc2cc(NC(=O)C3CCCCC3)ccc2s1)NO [KH-46, (E)-N-(2-(3-(hydroxyamino)-3-oxoprop-1-en-1-yl)benzo[b]thiophen-5-yl) cyclohexanecarboxamide] | 3.5 µM |
| 4.27 µM | – | > 20 µM | > 20 µM | – | O=C(O)/C=C/c1cc2cc(NC(=O)C3CCCCC3)ccc2s1 [KH-46A, (E)-3-(5-(cyclohexanecarboxamido)benzo[b]thiophen-2-yl)acrylic acid] | > 100 µM |
| 4.19 µM | > 20 µM | > 20 µM | > 20 µM | – | CC(C)(C)c1cccc(C(=O)Nc2ccc3sc(CCC(=O)NN)cc3c2)c1 [KH-30E] | 22.7 µM |
| 12.5 µM | > 20 µM | – | > 20 µM | 22 µM | CC(C)(C)c1ccc(C(=O)Nc2ccc3[nH]c(C(=O)O)cc3c2)cc1 [KH-39A, 5-(4-(tert-butyl)benzamido)-1H-indole-2-carboxylic acid] | > 100 µM |
| 1.6 µM | 4.36 µM | – | > 20 µM | 1.68 µM | O=C(O)/C=C/c1cc2cc(NC(=O)c3ccc(C(F)(F)F)cc3)ccc2s1 [KH-32A, (E)-3-(5-(4-(Trifluoromethyl)benzamido)benzo[b]thiophen-2-yl)acrylic acid] | > 100 µM |
| 1.14 µM | – | – | > 20 µM | 4.6 µM | O=C(Nc1ccc2sc(C(=O)O)cc2c1)c1ccccn1 [KH-60A, 5-(Picolinamido)benzo[b]thiophene-2-carboxylic acid hydrochloride] | > 100 µM |
